Experimental findings from US20230151021A1, “Compounds and Compositions for Treating Hematologic Malignancies” (priority 2020, published 2023) are described below.

Data set [1] deals with Raji cells. In words: cells. In kind it is cell-based, human. The settings on record: 100 nM for 72 h.
The test system of data set [2] is 13 cell lines representing a range of hematologic malignancies. As to the kind of experiment: Cell viability in panel of hematologic malignancy derived cell lines. The settings on record: 100 nM, 72 hours.
Description: Cell viability was determined after 72 hours by detecting luminescence. ALL, acute lymphoblastic leukemia; BL, Burkitt's lymphoma; DLBCL, diffuse large B-cell lymphoma; MCL, mantle cell lymphoma; AML, acute myeloid leukemia; MM, multiple myeloma; LCLs, lymphoblastoid cell lines.
(§2) 5000 cells as indicated were cultured in 96-well plate with 100 μl of media. On the next day, Brusatol or associated analogs were added once to the cells without media change. After treatment, the cells were incubated with 100 μl buffer for 10 minutes at room temperature following the instructions of CellTiter-Glo kit (Promega, Madison, Wis.). Luminescence was detected using a multi-mode reader Cytation 5 (BioTek, Winooski, Vt.). Brusatol or its analogs are dissolved in 100% ethanol and diluted in 1×PBS for treatment. Two independent experiments done in duplicates were performed.
For data set [3] the following is noted: plasma, 1 h.
The conditions of data set [4]: plasma, 1 h. The source holds these as a separate data set.
Data set [5] concerns PDX129. As to the kind of experiment: IC50 assays of biotin-conjugated compounds in multiple PDXs and lymphoma cells. The settings on record: Homo sapiens.
Description: as §2
Data set [6] has as its system PDX223. The data set is described as above. The settings on record: Homo sapiens.
Description: as §2
Data set [7] relates to Toledo. The description is as above. The settings on record: Homo sapiens.
Description: as §2
For data set [8], the system named is Pfeiffer. Described as above. The settings on record: Homo sapiens.
Description: as §2
Data set [9] deals with Jeko-1. The data set is described as above. The settings on record: Homo sapiens.
Description: as §2
Data set [10] concerns the target T1, PI3Kγ (Homo sapiens, UniProt P48736).
T1 construct: endogenous in cells; host or cells: SU-DHL-4 cells (lysate)
In words: Biotin pull-down / competitive binding assay in SU-DHL-4 cell lysates. The settings on record: SU-DHL-4 lysate, without parent Brusatol. The method, then: (§1) 30 μg of purified GST-tagged proteins were pre-cleared with Dynabeads M-280 Streptavidin (Invitrogen, Carlsbad, Calif., USA). The supernatants were collected and incubated with Dynabeads M-280 Streptavidin and 0, 300 μM, or 500 μM of biotin-conjugated Brusatol derivatives (51052) overnight at 4° C. For the competitive binding assays, cell lysates from SU-DHL-4 cells were incubated with the biotin-conjugated Brusatol derivative (51048) alone or together with Brusatol as well as Dynabeads M-280 Streptavidin. The complexes were harvested and washed with PBS. The collected beads were mixed with SDS loading buffer for further analysis.

Data set [11] addresses GST-tagged PI3Kγ (Homo sapiens, UniProt P48736). As to the kind of experiment: Pull-down assay with purified GST-tagged protein. The class given is binding. The settings on record: 0, 300 μM, or 500 μM. The method, then: PIK3CG cDNA (Plasmid #20574) was purchased from Addgene and cloned into a pGEX-6P-1 vector (GE Healthcare, Madison, Wis., USA). This GST-tagged PIK3CG plasmid was transformed into E. coli BL21 (DE3)-competent cells (Life Technologies, Carlsbad, Calif., USA) for in vitro expression according to Molecular Cloning (Third Edition).
as §1

Structures can show the parent of a compound that is named as a salt.

T1 sequence (P48736 whole entry): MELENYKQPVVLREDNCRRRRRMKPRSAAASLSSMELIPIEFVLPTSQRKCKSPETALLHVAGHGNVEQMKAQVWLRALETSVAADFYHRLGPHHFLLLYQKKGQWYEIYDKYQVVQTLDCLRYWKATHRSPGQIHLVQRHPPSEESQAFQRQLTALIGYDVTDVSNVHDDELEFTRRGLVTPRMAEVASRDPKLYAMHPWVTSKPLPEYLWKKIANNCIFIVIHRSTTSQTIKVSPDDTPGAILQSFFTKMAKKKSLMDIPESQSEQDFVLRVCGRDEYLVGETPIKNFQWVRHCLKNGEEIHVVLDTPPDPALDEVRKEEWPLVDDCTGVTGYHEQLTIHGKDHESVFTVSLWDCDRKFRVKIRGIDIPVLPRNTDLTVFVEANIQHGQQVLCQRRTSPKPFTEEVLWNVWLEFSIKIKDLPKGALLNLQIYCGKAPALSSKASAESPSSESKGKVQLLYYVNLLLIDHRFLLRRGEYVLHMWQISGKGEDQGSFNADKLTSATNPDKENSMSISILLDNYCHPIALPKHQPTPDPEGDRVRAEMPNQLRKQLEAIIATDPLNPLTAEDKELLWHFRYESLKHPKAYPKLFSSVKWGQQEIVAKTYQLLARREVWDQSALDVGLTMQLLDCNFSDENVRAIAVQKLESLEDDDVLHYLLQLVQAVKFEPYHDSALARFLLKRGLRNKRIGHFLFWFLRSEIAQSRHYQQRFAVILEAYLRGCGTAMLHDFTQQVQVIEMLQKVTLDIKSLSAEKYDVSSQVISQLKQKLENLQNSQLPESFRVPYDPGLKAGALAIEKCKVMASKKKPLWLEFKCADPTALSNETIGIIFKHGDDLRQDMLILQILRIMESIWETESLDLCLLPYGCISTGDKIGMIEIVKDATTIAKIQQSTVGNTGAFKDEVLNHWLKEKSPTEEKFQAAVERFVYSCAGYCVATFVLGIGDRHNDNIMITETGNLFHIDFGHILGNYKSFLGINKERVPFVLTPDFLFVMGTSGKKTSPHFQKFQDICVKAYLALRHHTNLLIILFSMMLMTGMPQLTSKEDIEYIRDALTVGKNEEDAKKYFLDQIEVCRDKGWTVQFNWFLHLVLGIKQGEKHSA
GST-tagged PI3Kγ, sequence (P48736 whole entry): as above

For the molecule `COC(=O)[C@@]12OC[C@]34C([C@@H](O)[C@@H]1O)[C@@]1(C)CC(=O)C(OC(=O)C5CCCN5C(=O)OC(C)(C)C)=C(C)[C@@H]1C[C@H]3OC(=O)[C@H](OC(=O)C=C(C)C)[C@@H]24` (stereo partly drawn) [Compound 11, 1-(tert-butyl) 2-((1R,2S,3S,3aS,3a1R,4R,6aR,7aR,11aS)-1,2-dihydroxy-3-(methoxycarbonyl)-8,11a-dimethyl-4-((3-methylbut-2-enoyl)oxy)-5,10-dioxo-1,3,3a,4,5,6a,7,7a,10,11,11a,11b-dodecahydro-2H-3,3a1-(epoxymethano)dibenzo[de,g]chromen-9-yl)(2S)-pyrrolidine-1,2-dicarboxylate], the “activity on viability of Raji cells (in words)” value (“activity on viability” below) in data set [1] is recorded as “moderate inhibition”.
Turning to `COC(=O)[C@@]12OC[C@]34C([C@@H](O)[C@@H]1O)[C@@]1(C)CC(=O)C(OC(=O)[C@@H](N)Cc5ccccc5)=C(C)[C@@H]1C[C@H]3OC(=O)[C@H](OC(=O)C=C(C)C)[C@@H]24` (stereo partly drawn) [Compound 14, methyl (1R,2S,3S,3aS,3a1R,4R,6aR,7aR,11aS)-9-((L-phenylalanyl)oxy)-1,2-dihydroxy-8,11a-dimethyl-4-((3-methylbut-2-enoyl)oxy)-5,10-dioxo-1,4,5,6a,7,7a,10,11,11a,11b-decahydro-2H-3,3a1-(epoxymethano)dibenzo[de,g]chromene-3(3aH)-carboxylate], in [2], the “inhibition of cell viability (in words)” value is listed as “significantly inhibit cell viability”.
Regarding `COC(=O)[C@@]12OC[C@]34C([C@@H](O)[C@@H]1O)[C@@]1(C)CC(=O)C(OC(=O)CNC(=O)CN)=C(C)[C@@H]1C[C@H]3OC(=O)[C@H](OC(=O)C=C(C)C)[C@@H]24` (stereo partly drawn) [Compound 20, methyl (1R,2S,3S,3aS,3a1R,4R,6aR,7aR,11aS)-9-((glycylglycyl)oxy)-1,2-dihydroxy-8,11a-dimethyl-4-((3-methylbut-2-enoyl)oxy)-5,10-dioxo-1,4,5,6a,7,7a,10,11,11a,11b-decahydro-2H-3,3a1-(epoxymethano)dibenzo[de,g]chromene-3(3aH)-carboxylate], the “activity on viability” value in [1] was “potent activities comparable to or higher than the parent brusatol”.
`COC(=O)[C@@]12OC[C@]34C([C@@H](O)[C@@H]1O)[C@@]1(C)CC(=O)C(OC(=O)C[C@H](C)NC(=O)C[C@H](C)N)=C(C)[C@@H]1C[C@H]3OC(=O)[C@H](OC(=O)C=C(C)C)[C@@H]24` (stereo partly drawn) [Compound 21, methyl (1R,2S,3S,3aS,3a1R,4R,6aR,7aR,11aS)-9-(((S)-3-((S)-3-aminobutanamido)butanoyl)oxy)-1,2-dihydroxy-8,11a-dimethyl-4-((3-methylbut-2-enoyl)oxy)-5,10-dioxo-1,4,5,6a,7,7a,10,11,11a,11b-decahydro-2H-3,3a1-(epoxymethano)dibenzo[de,g]chromene-3(3aH)-carboxylate]: the “activity on viability” value in [1] is on record as “potent activities comparable to or higher than the parent brusatol”.
With `COC(=O)[C@@]12OC[C@]34C([C@@H](O)[C@@H]1O)[C@@]1(C)CC(=O)C(OC(=O)[C@H](C)NC(=O)[C@H](C)N)=C(C)[C@@H]1C[C@H]3OC(=O)[C@H](OC(=O)C=C(C)C)[C@@H]24` (stereo partly drawn) [Compound 22, methyl (1R,2S,3S,3aS,3a1R,4R,6aR,7aR,11aS)-9-((L-alanyl-L-alanyl)oxy)-1,2-dihydroxy-8,11a-dimethyl-4-((3-methylbut-2-enoyl)oxy)-5,10-dioxo-1,4,5,6a,7,7a,10,11,11a,11b-decahydro-2H-3,3a1-(epoxymethano)dibenzo[de,g]chromene-3(3aH)-carboxylate], the “activity on viability” value in data set [1] is “not active”.
Consider `COC(=O)[C@@]12OC[C@]34C([C@@H](O)[C@@H]1O)[C@@]1(C)CC(=O)C(OC(=O)CNC(=O)CNC(=O)CN)=C(C)[C@@H]1C[C@H]3OC(=O)[C@H](OC(=O)C=C(C)C)[C@@H]24` (stereo partly drawn) [Compound 23, methyl (1R,2S,3S,3aS,3a1R,4R,6aR,7aR,11aS)-9-((glycylglycylglycyl)oxy)-1,2-dihydroxy-8,11a-dimethyl-4-((3-methylbut-2-enoyl)oxy)-5,10-dioxo-1,4,5,6a,7,7a,10,11,11a,11b-decahydro-2H-3,3a1-(epoxymethano)dibenzo[de,g]chromene-3(3aH)-carboxylate], for which the “activity on viability” value in [1] is given as “potent activities comparable to or higher than the parent brusatol”.
Regarding `COC(=O)[C@@]12OC[C@]34C([C@@H](O)[C@@H]1O)[C@@]1(C)CC(=O)C(OC(=O)C[C@H](C)N)=C(C)[C@@H]1C[C@H]3OC(=O)[C@H](OC(=O)C=C(C)C)[C@@H]24` (stereo partly drawn) [Compound 26-TFA], the “Plasma stability remaining % at 60 min, human” value in [3] is on record as 44%. In data set [4], the “Plasma stability remaining % at 60 min, rat” value is 39%.
For the molecule `COC(=O)[C@@]12OC[C@]34C([C@@H](O)[C@@H]1O)[C@@]1(C)CC(=O)C(OC(=O)[C@@H]5CCCN5)=C(C)[C@@H]1C[C@H]3OC(=O)[C@H](OC(=O)C=C(C)C)[C@@H]24` (stereo partly drawn) [Compound 31, (1R,2S,3S,3aS,3a1R,4R,6aR,7aR,11aS)-1,2-dihydroxy-3-(methoxycarbonyl)-8,11a-dimethyl-4-((3-methylbut-2-enoyl)oxy)-5,10-dioxo-1,3,3a,4,5,6a,7,7a,10,11,11a,11b-dodecahydro-2H-3,3a1-(epoxymethano)dibenzo[de,g]chromen-9-yl L-prolinate], the “activity on viability” value in data set [1] was “potent activities comparable to or higher than the parent brusatol”. Also, in [2], the “inhibition of cell viability (in words)” value is on record as “significantly inhibit cell viability”.
As a reminder, the IC50 is the concentration that inhibits the measured activity by half. Lower therefore signals greater potency. Consider `CC(C)=CC(=O)O[C@H]1C(=O)O[C@@H]2C[C@H]3C(C)=C(O)C(=O)C[C@]3(C)C3[C@@H](O)[C@H](O)[C@@]4(C(=O)NCCCCCCNC(=O)CCC[C@@H]5SC[C@@H]6NC(=O)N[C@@H]65)OC[C@]32[C@@H]14` (stereo partly drawn) [Compound 51046, (1R,2S,3S,3aS,3a1R,4R,6aR,7aR,11aS)-1,2,9-trihydroxy-8,11a-dimethyl-5,10-dioxo-3-((6-(4-((3aS,4S,6aR)-2-oxohexahydro-1H-thieno[3,4-d]imidazol-4-yl)butanamido)hexyl)carbamoyl)-1,3,3a,4,5,6a,7,7a,10,11,11a,11b-dodecahydro-2H-3,3a1-(epoxymethano)dibenzo[de,g]chromen-4-yl 3-methylbut-2-enoate], for which the IC50 is 1.64 µM in data set [5]; 8.97 µM in data set [6]; 0.494 µM in data set [7]; 8.91 µM in data set [8]; 3.01 µM in data set [9].
Consider `COC(=O)[C@@]12OC[C@]34C([C@@H](O)[C@@H]1O)[C@@]1(C)CC(=O)C(OC(=O)CCCC[C@@H]5SC[C@@H]6NC(=O)N[C@@H]65)=C(C)[C@@H]1C[C@H]3OC(=O)[C@H](OC(=O)C=C(C)C)[C@@H]24` (stereo partly drawn) [Compound 51048, methyl (1R,2S,3S,3aS,3a1R,4R,6aR,7aR,11aS)-1,2-dihydroxy-8,11a-dimethyl-4-((3-methylbut-2-enoyl)oxy)-5,10-dioxo-9-((5-((3aS,4S,6aR)-2-oxohexahydro-1H-thieno[3,4-d]imidazol-4-yl)pentanoyl)oxy)-1,4,5,6a,7,7a,10,11,11a,11b-decahydro-2H-3,3a1-(epoxymethano)dibenzo[de,g]chromene-3(3aH)-carboxylate], for which, in data set [10], the “binding activity with PI3Kγ (in words)” value is listed as “relatively strong”. For the same molecule, the half-maximal inhibitory concentration (IC50) in data set [5] was 1.73 µM; in data set [6] it was 3.56 µM; in data set [7], above 10 µM; in [8], 3.17 µM; in data set [9] it was 1.19 µM.
On to `COC(=O)[C@@]12OC[C@]34C([C@@H](O)[C@@H]1O)[C@@]1(C)CC(=O)C(OC(=O)CCCCCNC(=O)CCCC[C@@H]5SC[C@@H]6NC(=O)N[C@@H]65)=C(C)[C@@H]1C[C@H]3OC(=O)[C@H](OC(=O)C=C(C)C)[C@@H]24` (stereo partly drawn) [Compound 51052, methyl (1R,2S,3S,3aS,3a1R,4R,6aR,7aR,11aS)-1,2-dihydroxy-8,11a-dimethyl-4-((3-methylbut-2-enoyl)oxy)-5,10-dioxo-9-((6-(5-((3aS,4S,6aR)-2-oxohexahydro-1H-thieno[3,4-d]imidazol-4-yl)pentanamido)hexanoyl)oxy)-1,4,5,6a,7,7a,10,11,11a,11b-decahydro-2H-3,3a1-(epoxymethano)dibenzo[de,g]chromene-3(3aH)-carboxylate], for which, in data set [11], the “association with GST-tagged PI3Kγ in vitro (in words)” value is “formed a complex”. Also, the IC50 in data set [5] stood at 0.076 µM; in [6], 0.108 µM; in data set [7], 0.388 µM; in data set [8], 0.079 µM; in data set [9] it was 0.028 µM.
